The values below come from US9421206B1, “Hematological treatments based on levomefolate” (Cox Bioscience LLC, priority 2013, dated 2016).

The test system of assay [1] is Megaloblastic Bone Marrow Cells (B12 Deficiency). As to conditions: cited from earlier work.
Assay [2] has as its system Megaloblastic Bone Marrow Cells (Folate Deficiency). As to conditions: cited from earlier work.
Assay [3] can be described thus: Evaluation of NHANES 1999-2002 data: hematological markers by serum folate decile, supplement use and unmetabolized folic acid. Format: in vivo, human. As to conditions: for effect on production of hemoglobin: seniors aged >=60 y, serum hemoglobin with rising serum folate, with or without unmetabolized folic acid; for impact on homocysteine, methylmalonic acid and lactate dehydrogenase: when homocysteine or lactate dehydrogenase levels are elevated; for effect on MCV: with rising serum folate, with or without supplement use. An excerpt: An evaluation of data gathered through NHANES was undertaken to determine the effect of unmetabolized folic acid on serum hemoglobin concentrations. NHANES monitors the nation's health and nutritional status. The survey is currently implemented as a continuous annual survey and uses a complex multistage probability design to select a representative sample of the non-institutionalized US civilian population. Consistent with NHANES analytic guidelines, this example combines data from two separate survey periods spanning 1999-2002. The methods used herein are described in greater detail in Morris et al., AM. J. CLIN. NUTR. 2012; 91:1733-44, and are repeated herein for a more thorough understanding. A detailed description of blood collection and processing can be found in the NHANES Laboratory Procedures Manual. This particular example focuses on seniors (i.e., those aged ≧60 y), and included 3706 senior survey participants. Hemoglobin concentrations were measured at the MEC laboratory by using a MAXM hematology flow cytometer (Beckman Coulter Inc, Fullerton, Calif.). Detailed methods for all the biochemical assays can be found in the NHANES Laboratory Procedures Manuals. Eligible participants were divided into ten […] based on their serum folate concentrations, so that decile 1 includes the 10% of the participants having the lowest serum folate concentrations, decile 10 includes the 10% of the participants having the highest serum folate concentrations. etc. Participants in each decile were then further subdivided based on the detection of unmetabolized folic acid, and/or the participant's serum B12 or serum iron concentration, and mean hemoglobin concentrations calculated for each decile. Data analyses were performed by using SUDAAN release 9.0 (Research Triangle Institute, Research Triangle Park, N.C.) with appropriate sampling weights, pseudo primary sampling units, and stratification variables to account for the survey's complex sampling design.

A short description of assay [4]: Reanalysis of NHANES 1988-1994 vs 1999-2004: impact of folic acid supplement use on anemia and macrocytosis. Format: in vivo, human. As to conditions: men; 1988-1994 to 1999-2004, with increased use of folic acid supplements. From the text:
In order to determine whether folic acid supplements could be affecting the incidence of macrocytosis in the United States or whether folic acid supplements could be negatively influencing macrocytic processes, NHANES data reported in Ganji et al., AM. J. CLIN. NUTR. 2009; 89:363-71, were reanalyzed, this time over an extended time period from 1988-1994 until 1999-2004, to determine the impact of supplement use on the incidence of macrocytosis and mean corpuscular volume. Unless otherwise indicated, NHANES data collection methods were substantially the same as in Examples 1 and 2. This study used data from 4 surveys: NHANES 1988-1994, NHANES 1999-2000, NHANES 2001-2002, and NHANES 2003-2004. […] For NHANES 1988-1994 and 1999-2004, multivariate-adjusted and univariate values for hemoglobin, hematocrit, and MCV and prevalence rates (%) for overall anemia and macrocytosis were determined according to sex, race-ethnicity, age, poverty, and vitamin/mineral supplement use (yes or no). Prevalence of anemia (%) based on low hemoglobin concentrations and prevalence of macrocytosis (%) based on high MCV values were determined for the aforementioned demographic categories. The differences in hemoglobin, hematocrit, MCV, and prevalence of anemia and macrocytosis between NHANES 1988-1994 and NHANES 1999-2004 were determined with a 2-tailed unpaired t test. […]

For assay [5] the following is noted: apparently healthy human subjects; cited from earlier work.
The mark [6] stands for this setting: B12 deficiency, concentration 0.3 (unit not given).
Where [7] appears, read: B12 deficiency, concentration 1 (unit not given).
Where [8] appears, read: B12 deficiency, concentration 3 (unit not given).
[9] abbreviates: B12 deficiency, concentration 6 (unit not given).
[10] abbreviates: B12 deficiency, concentration 15 (unit not given).
[11] abbreviates: B12 deficiency, concentration 30 (unit not given).
The mark [12] stands for this setting: B12 deficiency, concentration 75 (unit not given).
Setting [13] is: B12 deficiency, concentration 300 (unit not given).
Where [14] appears, read: concentration 0.3 (unit not given).
Setting [15] is: concentration 1 (unit not given).
Where [16] appears, read: concentration 3 (unit not given).
Setting [17] is: concentration 6 (unit not given).
[18] abbreviates: concentration 15 (unit not given).
[19] abbreviates: concentration 30 (unit not given).
Where [20] appears, read: concentration 300 (unit not given).

Where two headings read alike, the source gives them in different places.

As for “α-(5,6-dimethylbenzimidazolyl)cobamide [B12]”, the “dU suppression test value” in assay [1] (B12 deficiency, 10 mcg/ml) is reported as 5.8%; in assay [2] (10 mcg/ml) it was 12.3%; in assay [2] (100 mcg/ml), 16.3%. In assay [1] (B12 deficiency, 100 mcg/ml), the “dU suppression test value ((3H)-TdR incorporation with dU as percentage of incorporation without dU)” value is recorded as 5.7%.
tetrahydrofolate [THF]: the “dU suppression test value” is on record as 10.8% in assay [1] (setting [6]); 8.1% in assay [1] (setting [7]); 9.3% in assay [1] (setting [8]); 6.3% in assay [1] (setting [9]); 4.9% in assay [1] (setting [10]); 5.0% in assay [1] (setting [11]). The “dU suppression test value” in assay [1] (setting [12]) is on record as 3.5%; in assay [1] (setting [13]) it was 2.4%; in assay [2] (setting [14]), 14.3%; in assay [2] (setting [15]), 8.6%; in assay [2] (setting [16]) it was 4.0%; in assay [2] (setting [17]) it was 2.5%. Moreover, the figures for the “dU suppression test value” in assay [2] (setting [18]), in assay [2] (setting [19]) and in assay [2] (setting [20]) were 2.1%, 2.2% and 1.9%, respectively. Besides, the “level giving correction of dU suppression” value in assay [1] (megaloblastic anemia due to vitamin B12 deficiency) is “above 6 mL/ml”.
`Nc1nc(=O)c2c([nH]1)NCC(CNc1ccc(C(=O)N[C@@H](CCC(=O)O)C(=O)O)cc1)N2C=O` (mixture of isomers) [folinic acid]: the “dU suppression test value” in assay [1] (setting [6]) is given as 4.5%; in assay [1] (setting [7]), 2.5%; in assay [1] (setting [8]), 1.9%; in assay [1] (setting [9]), 2.0%; in assay [1] (setting [10]) it was 2.2%; in assay [1] (setting [11]), 1.6%. Moreover, the “dU suppression test value” in assay [2] (setting [14]) is 3.4%; in assay [2] (setting [15]) it was 1.9%; in assay [2] (setting [16]), 1.9%; in assay [2] (setting [17]) it was 1.3%; in assay [2] (setting [19]) it was 1.0%. In addition, in assay [1] (all types of vitamin deficiency), the “effectiveness in overcoming the defect in DNA precursor synthesis” value is given as “most effective”.
On to `Nc1nc2ncc(CNc3ccc(C(=O)N[C@@H](CCC(=O)O)C(=O)O)cc3)nc2c(=O)[nH]1` [folic acid], for which the “effect on MCV in survey participants with elevated LDH levels” value in assay [3] (LDH > 198 U/L, as folate concentrations increased) is given as “increased the MCV”. Besides, the “effect on red cell count” value in assay [3] (same folate levels, with vs without folic acid supplements) is given as “red cell count is improved in the absence of folic acid”. In addition, the “effect on production of hemoglobin” value in assay [3] is “reduces the production of hemoglobin”. Further, the “impact on homocysteine, methylmalonic acid and lactate dehydrogenase” value in assay [3] is given as “negative impact”. In addition, the “effect on MCV” value in assay [3] is given as “leads to increases in MCV”. In addition, in assay [4], the incidence of macrocytosis entry is listed as “increased”. Further, the prevalence of anemia entry in assay [4] is “dropped”. The “dU suppression test value” in assay [1] (setting [7]) is on record as 14.8%; in assay [1] (setting [8]), 12%; in assay [1] (B12 deficiency, concentration 50 (unit not given)), 4.1%; in assay [2] (setting [15]), 10.3%; in assay [2] (concentration 5 (unit not given)), 5.5%; in assay [2] (concentration 50 (unit not given)), 2.3%.
For the molecule `CN1c2c(nc(N)[nH]c2=O)NC[C@@H]1CNc1ccc(C(=O)N[C@@H](CCC(=O)[O-])C(=O)[O-])cc1.[Ca+2]` [me-THF, L-5-methyltetrahydrofolate], the “effect on production of hemoglobin” value in assay [3] was “promotes the production of hemoglobin”. For the same molecule, the “impact on homocysteine, methylmalonic acid and lactate dehydrogenase” value in assay [3] is recorded as “positive impact”. In assay [3], the “effect on MCV” value is “generally leads to a reduction in MCV”. Also, the “dU suppression test value” was 16.1% in assay [1] (setting [8]); 12.9% in assay [1] (setting [11]); 18.4% in assay [1] (setting [12]); 15.7% in assay [1] (setting [13]); 3.9% in assay [2] (setting [16]); 4.6% in assay [2] (setting [17]). In addition, the figures for the “dU suppression test value” in assay [2] (setting [18]), in assay [2] (setting [19]) and in assay [2] (setting [20]) were 2.7%, 4.5% and 4.3%, respectively. Besides, the “concentration restoring normal dU suppression” value in assay [1] (vitamin B12 deficiency) is over 300 µg/mL. Also, the “effect on homocysteine levels” value in assay [5] is reported as “decrease homocysteine levels”.
